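Cultured in 96-well plates, cells were exposed to test compound for 48 hours across five concentrations. GI50 = concentration required for 50% inhibition of growth. TGI: concentration producing complete growth inhibition.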
Experiments:
Experiment in all cases: NCI tumour cell line growth inhibition, 48 h
MALME-3M melanoma = test system: MALME-3M melanoma
T-47D breast = test system: T-47D breast
OVCAR-3 ovarian = test system: OVCAR-3 ovarian
ACHN renal = test system: ACHN renal
SF-539 CNS = test system: SF-539 CNS
SK-MEL-28 melanoma = test system: SK-MEL-28 melanoma
MOLT-4 leukemia = test system: MOLT-4 leukemia
U251 CNS = test system: U251 CNS
UACC-62 melanoma = test system: UACC-62 melanoma
MCF7 breast = test system: MCF7 breast
CCRF-CEM leukemia = test system: CCRF-CEM leukemia
HCT-116 colon = test system: HCT-116 colon
SR leukemia = test system: SR leukemia
CAKI-1 renal = test system: CAKI-1 renal
HCC-2998 colon = test system: HCC-2998 colon
M14 melanoma = test system: M14 melanoma
OVCAR-5 ovarian = test system: OVCAR-5 ovarian
NCI-H460 lung = test system: NCI-H460 lung
SW-620 colon = test system: SW-620 colon
NCI/ADR-RES ovarian = test system: NCI/ADR-RES ovarian
RPMI-8226 leukemia = test system: RPMI-8226 leukemia
MDA-MB-231 breast = test system: MDA-MB-231 breast
MDA-MB-435 = test system: MDA-MB-435
IGROV1 ovarian = test system: IGROV1 ovarian
BT-549 breast = test system: BT-549 breast
K-562 leukemia = test system: K-562 leukemia
786-0 renal = test system: 786-0 renal
NCI-H23 lung = test system: NCI-H23 lung
TK-10 renal = test system: TK-10 renal
SN12C renal = test system: SN12C renal
A549 NSCLC = test system: A549 NSCLC
SNB-19 CNS = test system: SNB-19 CNS
EKVX NSCLC = test system: EKVX NSCLC
UO-31 renal = test system: UO-31 renal
HCT-15 colon = test system: HCT-15 colon
SK-MEL-2 melanoma = test system: SK-MEL-2 melanoma
HL-60(TB) leukemia = test system: HL-60(TB) leukemia
DU-145 prostate = test system: DU-145 prostate
HOP-92 NSCLC = test system: HOP-92 NSCLC
SK-OV-3 ovarian = test system: SK-OV-3 ovarian
SF-295 CNS = test system: SF-295 CNS
LOX IMVI melanoma = test system: LOX IMVI melanoma
KM12 colon = test system: KM12 colon
OVCAR-4 ovarian = test system: OVCAR-4 ovarian
OVCAR-8 ovarian = test system: OVCAR-8 ovarian
SF-268 CNS = test system: SF-268 CNS
RXF 393 renal = test system: RXF 393 renal
HT29 colon = test system: HT29 colon
HOP-62 NSCLC = test system: HOP-62 NSCLC
HS 578T breast = test system: HS 578T breast
NCI-H226 lung = test system: NCI-H226 lung
A498 renal = test system: A498 renal
SK-MEL-5 melanoma = test system: SK-MEL-5 melanoma
COLO 205 colon = test system: COLO 205 colon
PC-3 prostate = test system: PC-3 prostate
NCI-H522 lung = test system: NCI-H522 lung
SNB-75 CNS = test system: SNB-75 CNS
UACC-257 melanoma = test system: UACC-257 melanoma

## Cc1nn(CCO)c(C)c1N=[N+]([O-])c1c(C)nn(CCO)c1C
MALME-3M melanoma
  GI50: 723 nM
  TGI: 2400 nM
T-47D breast
  GI50: 1700 nM
  TGI: 4510 nM
OVCAR-3 ovarian
  GI50: 1920 nM
  TGI: 3650 nM
ACHN renal
  GI50: 1360 nM
  TGI: 2910 nM
SF-539 CNS
  GI50: 2130 nM
  TGI: 5510 nM
SK-MEL-28 melanoma
  GI50: 2840 nM
  TGI: 7190 nM
MOLT-4 leukemia
  GI50: 8470 nM
  TGI: 33300 nM
U251 CNS
  GI50: 7420 nM
  TGI: 20600 nM
UACC-62 melanoma
  GI50: 8480 nM
  TGI: 22200 nM
MCF7 breast
  GI50: 2640 nM
  TGI: 8360 nM
CCRF-CEM leukemia
  GI50: 3530 nM
  TGI: 33500 nM
HCT-116 colon
  GI50: 2120 nM
SR leukemia
  GI50: 1800 nM
  TGI: 6860 nM
CAKI-1 renal
  GI50: 1510 nM
  TGI: 3330 nM
HCC-2998 colon
  GI50: 13700 nM
  TGI: 27200 nM
M14 melanoma
  GI50: 1880 nM
  TGI: > 19700 nM
OVCAR-5 ovarian
  GI50: 11300 nM
  TGI: 24200 nM
NCI-H460 lung
  GI50: 17800 nM
  TGI: 37800 nM
SW-620 colon
  GI50: 1450 nM
  TGI: 3090 nM
NCI/ADR-RES ovarian
  GI50: 11800 nM
  TGI: 39000 nM
RPMI-8226 leukemia
  GI50: 3640 nM
  TGI: 14800 nM
MDA-MB-231 breast
  GI50: 13500 nM
  TGI: 28800 nM
MDA-MB-435
  GI50: 1590 nM
  TGI: 3530 nM
IGROV1 ovarian
  GI50: 4800 nM
  TGI: 21800 nM
BT-549 breast
  GI50: 2130 nM
  TGI: 6480 nM
K-562 leukemia
  GI50: 2190 nM
  TGI: 7130 nM
786-0 renal
  GI50: 10100 nM
  TGI: 41500 nM
NCI-H23 lung
  GI50: 4950 nM
  TGI: 10600 nM
TK-10 renal
  GI50: 1640 nM
  TGI: 3430 nM
SN12C renal
  GI50: 6300 nM
  TGI: 23000 nM
A549 NSCLC
  GI50: 14800 nM
  TGI: 36200 nM
SNB-19 CNS
  GI50: 16600 nM
  TGI: 32100 nM
EKVX NSCLC
  GI50: 5620 nM
  TGI: 20600 nM
UO-31 renal
  GI50: 754 nM
  TGI: 2150 nM
HCT-15 colon
  GI50: 2400 nM
  TGI: 6500 nM
SK-MEL-2 melanoma
  GI50: 5790 nM
  TGI: 40900 nM
HL-60(TB) leukemia
  GI50: 2500 nM
  TGI: 9300 nM
DU-145 prostate
  GI50: 2920 nM
  TGI: 7880 nM
HOP-92 NSCLC
  GI50: 1830 nM
  TGI: 7190 nM
SK-OV-3 ovarian
  GI50: 16300 nM
  TGI: 30500 nM
SF-295 CNS
  GI50: 15300 nM
  TGI: 30000 nM
LOX IMVI melanoma
  GI50: 3000 nM
  TGI: 7690 nM
KM12 colon
  GI50: 12600 nM
  TGI: 26000 nM
OVCAR-4 ovarian
  GI50: 5880 nM
  TGI: 15800 nM
OVCAR-8 ovarian
  GI50: 2190 nM
  TGI: 4540 nM
SF-268 CNS
  GI50: 15600 nM
  TGI: 31200 nM
RXF 393 renal
  GI50: 1740 nM
  TGI: 3730 nM
HT29 colon
  GI50: 3590 nM
  TGI: 13700 nM
HOP-62 NSCLC
  GI50: 20400 nM
  TGI: > 57900 nM
HS 578T breast
  GI50: 17600 nM
  TGI: 53100 nM
NCI-H226 lung
  GI50: 16100 nM
  TGI: 37000 nM
A498 renal
  GI50: 15900 nM
  TGI: 29800 nM
SK-MEL-5 melanoma
  GI50: 11000 nM
  TGI: 23300 nM
COLO 205 colon
  GI50: 296 nM
  TGI: 802 nM
PC-3 prostate
  GI50: 4990 nM
  TGI: 20900 nM
NCI-H522 lung
  GI50: 1030 nM
  TGI: 2880 nM
SNB-75 CNS
  GI50: 13100 nM
  TGI: 25900 nM
UACC-257 melanoma
  GI50: 1690 nM
  TGI: 3500 nM

## C=C1C(=O)O[C@H]2[C@H]1CC/C(COC(=O)/C=C\C(=O)NCc1ccc(Cn3c(=O)sn(CCCI)c3=O)cc1)=C\CC[C@@]1(C)O[C@@H]21
MALME-3M melanoma
  GI50: 707 nM
  TGI: 1420 nM
T-47D breast
  GI50: 801 nM
  TGI: 2170 nM
OVCAR-3 ovarian
  GI50: 281 nM
  TGI: 927 nM
ACHN renal
  GI50: 413 nM
  TGI: 1040 nM
SF-539 CNS
  GI50: 689 nM
  TGI: 1340 nM
SK-MEL-28 melanoma
  GI50: 800 nM
  TGI: 1500 nM
MOLT-4 leukemia
  GI50: 557 nM
  TGI: 2990 nM
U251 CNS
  GI50: 871 nM
  TGI: 1950 nM
UACC-62 melanoma
  GI50: 732 nM
  TGI: 1450 nM
MCF7 breast
  GI50: 282 nM
  TGI: 1090 nM
CCRF-CEM leukemia
  GI50: 155 nM
  TGI: 1680 nM
HCT-116 colon
  GI50: 193 nM
  TGI: 770 nM
SR leukemia
  GI50: 170 nM
  TGI: 7800 nM
CAKI-1 renal
  GI50: 298 nM
  TGI: 999 nM
HCC-2998 colon
  GI50: 909 nM
  TGI: 1660 nM
M14 melanoma
  GI50: 637 nM
  TGI: 1440 nM
OVCAR-5 ovarian
  GI50: 752 nM
  TGI: 1590 nM
NCI-H460 lung
  GI50: 738 nM
  TGI: 1580 nM
SW-620 colon
  GI50: 250 nM
  TGI: 891 nM
NCI/ADR-RES ovarian
  GI50: 988 nM
  TGI: 3610 nM
RPMI-8226 leukemia
  GI50: 196 nM
  TGI: 1210 nM
MDA-MB-231 breast
  GI50: 593 nM
  TGI: 1340 nM
MDA-MB-435
  GI50: 605 nM
  TGI: 1250 nM
IGROV1 ovarian
  GI50: 368 nM
  TGI: 1110 nM
BT-549 breast
  GI50: 622 nM
  TGI: 1450 nM
K-562 leukemia
  GI50: 312 nM
  TGI: 13100 nM
786-0 renal
  GI50: 770 nM
  TGI: 1510 nM
NCI-H23 lung
  GI50: 788 nM
  TGI: 1530 nM
TK-10 renal
  GI50: 758 nM
  TGI: 1520 nM
SN12C renal
  GI50: 643 nM
  TGI: 1500 nM
A549 NSCLC
  GI50: 1050 nM
  TGI: 2960 nM
SNB-19 CNS
  GI50: 850 nM
  TGI: 1690 nM
EKVX NSCLC
  GI50: 729 nM
  TGI: 1440 nM
UO-31 renal
  GI50: 316 nM
  TGI: 1020 nM
HCT-15 colon
  GI50: 355 nM
  TGI: 1120 nM
SK-MEL-2 melanoma
  GI50: 919 nM
  TGI: 1960 nM
HL-60(TB) leukemia
  GI50: 575 nM
  TGI: 2260 nM
DU-145 prostate
  GI50: 654 nM
  TGI: 1310 nM
HOP-92 NSCLC
  GI50: 580 nM
  TGI: 1310 nM
SK-OV-3 ovarian
  GI50: 5080 nM
  TGI: 11400 nM
SF-295 CNS
  GI50: 2190 nM
  TGI: 8060 nM
LOX IMVI melanoma
  GI50: 291 nM
  TGI: 983 nM
KM12 colon
  GI50: 866 nM
  TGI: 1730 nM
OVCAR-4 ovarian
  GI50: 603 nM
  TGI: 1290 nM
OVCAR-8 ovarian
  GI50: 771 nM
  TGI: 3410 nM
SF-268 CNS
  GI50: 740 nM
  TGI: 1440 nM
RXF 393 renal
  GI50: 423 nM
  TGI: 1110 nM
HT29 colon
  GI50: 547 nM
  TGI: 2460 nM
HOP-62 NSCLC
  GI50: 1510 nM
  TGI: 7680 nM
HS 578T breast
  GI50: 851 nM
  TGI: 2390 nM
NCI-H226 lung
  GI50: 883 nM
  TGI: 2620 nM
A498 renal
  GI50: 831 nM
  TGI: 1550 nM
SK-MEL-5 melanoma
  GI50: 813 nM
  TGI: 1490 nM
COLO 205 colon
  GI50: 568 nM
  TGI: 1510 nM
PC-3 prostate
  GI50: 610 nM
  TGI: 1440 nM
NCI-H522 lung
  GI50: 643 nM
  TGI: 1730 nM
SNB-75 CNS
  GI50: 442 nM
  TGI: 1160 nM
UACC-257 melanoma
  GI50: 872 nM
  TGI: 1810 nM

From PubChem BioAssay (NCI)
